Where two headings read alike, the source gives them in different places. Square brackets hold non-standard residues; d marks the D form. Peptide text beside a SMILES is read from it.
What was measured:
[1] = tested on: primary culture of human dermal fibroblasts (DF); experiment: MTS cell viability assay, dermal fibroblasts; conditions: for Effect on proliferative activity at low dose (MTS): 5 μM single dose
Method: (§1) As a next step, we used MTS assay[27] to examine the effect of GO peptides on the viability of the four described cell cultures as a function of different treatment schemes. […] This treatment regimen is labeled 4 × 5 underneath the graph. Alternatively, we introduced 5 μM of peptide daily while exchanging the medium (denoted 4/5). Unlike the previous protocol, it avoids potential build-up of the peptide in the medium.
(§2) The treatment protocols are: 4 × 5 – four daily doses of 5 μM delivered without exchanging the growth medium; 4/5 – four daily doses of 5 μM delivered with exchanged growth medium; 1 × 5, 1 × 10, 1 × 15, and 1 × 20 – a single dose of 5, 10, 15, or 20 μM, respectively. MTS reagent was added to the wells 96 h after the first (and sometimes the only) application of the peptide and the optical density at 492 nm was measured to determine the fraction of the surviving cells.
(§3) As a next step, we set out to test the cytotoxic effect of these peptides on the normal cells.
(§4) Cell survival was measured using CellTiter 96 AQueous One Solution Cell Proliferation Assay (MTS test, Promega, USA). Cells have been seeded in a 96-well flat-bottom plate in 100 μl of culture medium (10^3 cells/well for A549, HT-1080, dermal fibroblasts and eMSC or 5 × 10^3 cells/well for ZR-75-1) and allowed to attach for 24 h. The starting amount of cells was chosen to account for their growth rate and degree of spreading such as to avoid excessive dilution in the beginning of the experiment or control cell overgrowth toward the end. After 24 h, 10 μl of peptide stock solution or PBS (control) were added to the wells. After 96 h, 20 μl of the MTS-reagent were added to each well and 1–2 h later optical density was measured at the wavelength 492 nm using the 96-well plate reader (Titertek Multiskan, Labsystems, Finland). All experiments were conducted in duplicate or triplicate.

[2] = biological target: T1, reduced and denatured hen egg white lysozyme (Gallus gallus, UniProt P00698); experiment: Lysozyme oxidative refolding assay (disulfide oxidoreductase activity); format: biochemical; conditions: 1 mM peptide, pH 8.5, room temperature
T1 construct: Hen egg white lysozyme (Amresco, USA) was reduced/denatured and lyophilized; purchased Amresco, USA; host or cells: hen egg white
Source text: We have also conducted in vitro experiments to directly probe disulfide oxidoreductase properties of GO-202 peptide. For this purpose we have used the well-established lysozyme refolding assay. In brief, GO-202 is applied to the sample of reduced and denatured hen lysozyme. The protein then undergoes oxidative refolding, assisted by GO-202 which plays the role of disulfide oxidase (isomerase). After a certain interval of time (Tox) this process is quenched by adding an aliquot of acid and the sample is loaded on the reverse phase column.
Figure 10 Oxidative refolding of hen egg lysozyme as monitored by reverse-phase HPLC. […] Top panel (red traces) illustrate protein renaturation in the presence of GO-202; bottom panel (blue traces) represent control measurements with no peptide. The reaction time Tox ranging from 0 to 75 mins is listed on the left side of the individual chromatograms.
Hen egg white lysozyme (Amresco, USA) was reduced/denatured and lyophilized according to the protocol by van den Berg et al.[54]. It was then dissolved in buffer B1 (8 M urea, 100 mM Tris-HCl, 100 mM NaCl, 1 mM EDTA, pH 8.5) to obtain solution with 100 μM lysozyme concentration. Refolding was initiated by rapid dilution of 50 μL of this solution in 150 μL of buffer B2 (100 mM Tris-HCl, 100 mM NaCl, 1 mM EDTA, pH 8.5) containing the appropriate amount of redox agent (none for control experiment, 1.0 mM/0.2 mM GSH/GSSG for calibration experiment, 1 mM of GO-202 for disulfide oxidoreductase activity assay). The reactions were carried out at room temperature and quenched by addition of 10 μL of 2.5 M HCl to produce a pH of ca. 2. Buffers B1 and B2 were degassed prior to use by applying vacuum while stirred on magnetic stirrer for 30 min.
Reverse-phase chromatography data were obtained using Shimadzu Nexera HPLC with detection at 280 nm wavelength. The column used was Phenomenex Luna C-18 (5 μm particle size, 100 Å pore size, 150 mm length, 4.6 mm diameter); sample injection volume was 20 μL. HPLC solvent A was H2O/0.2% (v/v) trifluroacetic acid (TFA), solvent B was 90% CH3CN/10% H2O/0.2% TFA. Lysozyme was eluted using 30 min linear gradient from 35% to 45% of solvent B with a flow rate of 1 mL/min. Chromatograms from calibration GSH/GSSG experiments were in agreement with the previously reported data[54][63].

[3] = tested on: human breast carcinoma cell line ZR-75-1; experiment: MTS cell viability assay, ZR-75-1; conditions: single dose
Method: as §1, §2
(§5) The data are according to the MTS assay, where the optical density was measured 96 h after the application of the peptide.
as §4

[4] = tested on: human fibrosarcoma cell line HT-1080; format: cell-based; conditions: for Viability of HT-1080 cells (MTS): single 20 μM dose, different incubation times, Fig. 9
[5] = tested on: human endometrial mesenchymal stem cells (eMSC); experiment: MTS cell viability assay, eMSC; conditions: normal cells: eMSC; single dose, 96 h; Fig. 7E,F
Method: as §5
(§6) As a next step, we set out to test the cytotoxic effect of these peptides on the normal cells. In addition to the primary culture of dermal fibroblasts, which has been discussed above, we have also used human endometrial mesenchymal stem cells (eMSC).
as §4

[6] = cited from earlier work
Source text: Some interesting examples of peptides with presumed DO mechanism can also be found in the literature. […] The efficiency of this peptide was critically dependent on the two contiguous cysteines: mutating these residues to alanines or serines completely abrogated its activity, whereas other alterations such as sequence reversal preserved the activity.

lysozyme = conditions: oxidative refolding of lysozyme in vitro; cited from earlier work
Source text: One instructive example of the redox-active peptides in Table 1 is the peptide labeled DIL (disulfide-isomerase-like). Originally, Woycechowsky and Raines have investigated the CGC peptide, where they measured the redox potential of −167 mV[40]. […] Recently, a longer peptide, RKCGCFF, has been introduced by Liu et al.[41]. The two basic residues, RK, have been added to the sequence with the intent to lower the thiol pKa values, while the two hydrophobic residues, FF, have been included to improve binding of the pept ...

[7] = tested on: human breast carcinoma and prostate cancer cells; conditions: cited from earlier work
[8] = tested on: primary culture of human dermal fibroblasts (DF)
Method: as §1, §2, §3, §4

[9] = tested on: human breast carcinoma cell line ZR-75-1
Method: as §1, §2, §5, §4

[10] = tested on: human fibrosarcoma cell line HT-1080; format: cell-based
Source text: To evaluate the activity of DIL, CopYL and seven other peptides described in Table 1, we have conducted the dose-response measurements on the sensitive (HT-1080) and insensitive (ZR-75-1) cancer cell lines. The results are shown in Fig. 7A–D. For fibrosarcoma cells HT-1080, the best results are obtained using the peptide DOL with presumed disulfide oxidase properties. […] This is a much better performance than shown by GO-202 where the survival rate under identical conditions is 16%.
All experiments were conducted in duplicate or triplicate.

[11] = tested on: human endometrial mesenchymal stem cells (eMSC)
Method: as §5, §6, §4

T1 sequence (P00698 19-147): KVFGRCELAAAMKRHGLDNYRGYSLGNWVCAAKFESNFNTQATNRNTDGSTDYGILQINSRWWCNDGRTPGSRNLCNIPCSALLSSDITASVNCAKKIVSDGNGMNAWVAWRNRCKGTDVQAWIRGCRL

Molecule: N=C(N)NCCC[C@@H](N)C(=O)N[C@H](CCCNC(=N)N)C(=O)N[C@H](CCCNC(=N)N)C(=O)N[C@H](CCCNC(=N)N)C(=O)N[C@H](CCCNC(=N)N)C(=O)N[C@H](CCCNC(=N)N)C(=O)N[C@H](CCCNC(=N)N)C(=O)N[C@H](CCCNC(=N)N)C(=O)N[C@H](CCCNC(=N)N)C(=O)N[C@@H](CS)C(=O)N[C@@H](CCC(N)=O)C(=O)N[C@@H](CS)C(=O)N[C@@H](CCCNC(=N)N)C(=O)N[C@@H](CCCNC(=N)N)C(=O)N[C@@H](CCCCN)C(=O)N[C@@H](CC(N)=O)C(=O)O [GO-202] (H-[dR][dR][dR][dR][dR][dR][dR][dR][dR]CQCRRKN-OH; N-terminus and C-terminus assumed)
- Effect on proliferative activity at low dose (MTS) ([1]; dermal fibroblasts, 96 h): small increases in proliferative activity
- Cell viability (MTS) ([1]; dermal fibroblasts, 4 × 5: four daily doses of 5 μM without exchanging growth medium, OD 492 nm 96 h after first application): significant impact
- Cytotoxic activity compared with GO-202 (dose-response, MTS) ([1]; normal cells: dermal fibroblasts, single dose, 96 h, Fig. 7E,F): highly sensitive
- Disulfide oxidoreductase activity in oxidative refolding of lysozyme ([2]; 25 μM-scale lysozyme diluted from 100 μM stock, RP-HPLC 280 nm): moderately effective disulfide oxidoreductase
- Reaction time Tox after which a significant fraction of lysozyme is fully oxidized natively folded ([2]; RP-HPLC): 15 min
- Reaction time Tox after which native form of lysozyme is dominant ([2]; RP-HPLC): 75 min
- Reaction time Tox after which no distinct peak from reduced lysozyme is observed ([2]; RP-HPLC, control without peptide: partially oxidized after ca. 75 mins): ≤ 1 min
- Cytotoxic activity compared with GO-202 (dose-response, MTS) ([3]; OD measured 96 h after application, Fig. 7C,D): modestly active
- Cell viability (MTS) ([4]; HT-1080, 4 × 5: four daily doses of 5 μM without exchanging growth medium, OD 492 nm 96 h after first application, duplicate or triplicate): significant impact
- Viability of HT-1080 cells (MTS) [4]: cell death occurs soon after the GO-202 treatment
- Cytotoxic activity compared with GO-202 (dose-response, MTS) [5]: highly sensitive

Molecule: GKAKCCK
- antimicrobial activity [6]: pronounced antimicrobial activity

Molecule: RKCGCFF [peptide of Liu et al., mimic of disulfide isomerase]
- Efficiency as a mimic of disulfide isomerase (lysozyme): increased efficiency

Molecule: [R]9AQARRKNYGQLDIFP [CP-1]
- Cytotoxic properties [7]: no appreciable cytotoxic properties

Molecule: [R]9CCCRRKN
- Effect on proliferative activity at low dose (MTS) ([1]; dermal fibroblasts, 96 h): small increases in proliferative activity
- Cytotoxic activity compared with GO-202 (dose-response, MTS) [8]: outperform GO-202
- Cytotoxic activity compared with GO-202 (dose-response, MTS) [9]: significantly outperform GO-202
- Cytotoxic activity compared with GO-202 (dose-response, MTS) [10]: outperform the standard GO-202, although only by a small margin
- Cytotoxic activity compared with GO-202 (dose-response, MTS) [11]: strongest effect

Molecule: [R]9CQSRRKN
- Viability of HT-1080 cells (MTS) [4]: inactive

Molecule: [R]9FFCPHCYQ [DOL]
- Effectiveness in killing cancer cells relative to GO-202 ([3]; 20 μM, MTS 96 h): three times more effective
- Cytotoxic activity compared with GO-202 (dose-response, MTS) [8]: strongest effect
- Cytotoxic activity compared with GO-202 (dose-response, MTS) [9]: best result
- Cytotoxic activity compared with GO-202 (dose-response, MTS) [10]: best results
- survival rate (MTS assay) ([10]; HT-1080, 96 h incubation with 20 μM peptide, single dose): essentially fully eliminated
- Cytotoxic activity compared with GO-202 (dose-response, MTS) [11]: outperform GO-202

Molecule: [R]9GCGPCG [DRL, disulfide-reductase-like peptide derived from thioredoxin]
- Cytotoxic activity compared with GO-202 (dose-response, MTS) [9]: inactive
- Cytotoxic activity compared with GO-202 (dose-response, MTS) [10]: inactive

Molecule: [R]9KCGCFF [DIL]
- Effect on proliferative activity at low dose (MTS) ([1]; dermal fibroblasts, 96 h): small increases in proliferative activity
- Cytotoxic activity compared with GO-202 (dose-response, MTS) [8]: less cytotoxic than GO-202
- Cytotoxic activity compared with GO-202 (dose-response, MTS) [9]: significantly outperform GO-202
- Cytotoxic activity compared with GO-202 (dose-response, MTS) [10]: second best result
- Cytotoxic activity compared with GO-202 (dose-response, MTS) [11]: less cytotoxic than GO-202

Molecule: [R]9SQCRRKN
- Viability of HT-1080 cells (MTS) [4]: inactive

Molecule: [R]9SQSRRKN [control: GO-202 with S-for-C substitution]
- Cytotoxic activity compared with GO-202 (dose-response, MTS) [10]: inefficient compared to GO-202
- Viability of HT-1080 cells (MTS) [4]: ineffective
